Results taken from publication PMC7316778 (Nature Communications, 2020).
Several values for one entry are separate records, joined by “and”; a condition that tells them apart may be missing. Identical values can stand only once.

Legend:
FER^WT = FER^WT (Homo sapiens, UniProt P16591); experiment: In vitro TR-FRET kinase assay
FES^WT = biological target: T1, FES^WT (Homo sapiens, UniProt P07332); experiment: In vitro TR-FRET kinase assay; type: biochemical; details: for IC50: TR-FRET assay, 5 µM ATP, n = 3, read-out: pIC50 FES^WT (converted)
T1 construct: human FES cDNA encoding residues 448–822 or human FER cDNA encoding residues 448–820 was amplified by PCR; made in house; host or cells: E. coli BL21(DE3), co-expressing YopH phosphatase
Procedure: All measurements were performed in triplicate.

[1] = test system: FES^S700C HL-60 neutrophils; experiment: Phagocytosis assay with GFP-expressing E. coli; type: cell-based, human; details: for GFP-positive cells (%): Sup. Fig. 15a; for Mean GFP intensity (RFU): Sup. Fig. 15b
Procedure: HL-60 cells were differentiated to neutrophils as described above. Cells were counted and centrifuged (200g, 5 min), followed by resuspension in growth medium without antibiotics. Cells were incubated with vehicle or inhibitor (from 1000x concentrated stocks in DMSO) for 1 h at 37 °C prior to infection (1×10^6 cells in 900 µL in 12-well plate). Meanwhile, E. coli B834(DE3) constitutively expressing GFP^A206K were grown in LB medium to an OD600 of 0.4–1.0, after which bacteria were centrifuged (2000g, 5 min), washed and resuspended in PBS to appropriate density. Neutrophils were infected by addition of bacteria at multiplicity of infection (MOI) of 30 unless stated otherwise. Cells were then incubated for 1 h at 37 °C unless stated otherwise, after which cells were resuspended and transferred to Eppendorf tubes, washed in FACS buffer (1 mL, 500g, 3 min) and fixed in 1% PFA in PBS (15 min, 4 °C, in the dark). Samples were further processed as described above.
Events (generally 20,000 per condition) were gated by forward and side scatter (cells), side scatter area (singlets) and the percentage of GFP-positive cells and GFP mean fluorescence intensity (MFI) were determined based on background fluorescence for non-infected cells. The GREEN-B channel (525/30 filter) was used to detect GFP.

FER^WT, sequence (P16591 448-820): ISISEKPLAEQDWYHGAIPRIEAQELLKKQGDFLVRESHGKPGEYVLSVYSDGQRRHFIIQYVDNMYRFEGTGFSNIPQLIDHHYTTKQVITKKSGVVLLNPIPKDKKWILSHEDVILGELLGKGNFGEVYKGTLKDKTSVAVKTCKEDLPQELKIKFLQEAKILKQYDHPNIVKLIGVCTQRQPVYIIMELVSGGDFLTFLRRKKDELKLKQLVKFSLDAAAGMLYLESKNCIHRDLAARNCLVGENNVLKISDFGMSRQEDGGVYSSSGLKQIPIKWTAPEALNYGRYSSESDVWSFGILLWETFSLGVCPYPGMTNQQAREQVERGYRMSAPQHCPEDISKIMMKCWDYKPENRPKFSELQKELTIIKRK
T1 sequence (P07332 448-822): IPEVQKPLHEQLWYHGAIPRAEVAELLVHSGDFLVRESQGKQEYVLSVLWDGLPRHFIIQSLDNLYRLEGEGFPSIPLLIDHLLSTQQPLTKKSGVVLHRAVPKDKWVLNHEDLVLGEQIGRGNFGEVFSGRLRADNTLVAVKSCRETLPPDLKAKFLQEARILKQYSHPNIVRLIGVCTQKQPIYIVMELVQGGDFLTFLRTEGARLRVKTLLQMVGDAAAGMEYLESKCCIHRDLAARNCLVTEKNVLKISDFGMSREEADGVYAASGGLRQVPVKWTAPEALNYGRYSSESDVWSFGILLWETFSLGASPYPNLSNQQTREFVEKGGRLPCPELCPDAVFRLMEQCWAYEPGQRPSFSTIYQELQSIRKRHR

Q: For `Nc1ncnc2c1ncn2[C@@H]1O[C@H](COP(=O)(O)OP(=O)(O)OP(=O)(O)O)[C@@H](O)[C@H]1O` [ATP], which Km (FER^WT; read-out: ATP KM, FER^WT) is on record?
A: 11 µM

Q: And the Km (FES^WT; FES^WT, TR-FRET, 60 min, read-out: ATP KM)?
A: 1.9 µM

Q: How did the IC50 (FER^WT) turn out when `COc1ccccc1Nc1ncc(Cl)c(Nc2ccccc2S(=O)(=O)C(C)C)n1` [Compound 2] was run?
A: 5.01 nM

Q: What about the IC50 (FES^WT) of the same compound?
A: 50.1 nM

Q: How did the Phagocytic index ([1]; Figure 7i, replicates) turn out when `COc1ccc2c(c1)CC[C@@H]1[C@@H]2CC[C@]2(C)[C@@H](NCCCCCCN3C(=O)C=CC3=O)CC[C@@H]12` [Compound U-73122, U-73122] was run?
A: 64.8265 and 82.4025 and 81.0921 and 67.7147 and 64.5235

Q: Which “Residual activity (%) WT Mean” value (FER^WT; log[inhibitor] (M) -5) does the source give for `COc1ccccc1Nc1ncc(Cl)c(Nc2ccccc2S(=O)(=O)C(C)C)n1` [Supplementary Figure 8c] here?
A: 0.06517%

Q: And the “Residual activity (%) WT Mean” value (FER^WT; log[inhibitor] (M) -5.52288)?
A: 0.1492%

Q: And the “Residual activity (%) WT Mean” value (FER^WT; log[inhibitor] (M) -6)?
A: -0.06836%

Q: What about the “Residual activity (%) WT Mean” value (FER^WT; log[inhibitor] (M) -6.52288) of the same compound?
A: 0.8273%

Q: And the “Residual activity (%) WT Mean” value (FER^WT; log[inhibitor] (M) -7)?
A: 4.343%

Q: And the “Residual activity (%) WT Mean” value (FER^WT; log[inhibitor] (M) -7.52288)?
A: 12.0728%

Q: And the “Residual activity (%) WT Mean” value (FER^WT; log[inhibitor] (M) -8)?
A: 31.4398%

Q: And the “Residual activity (%) WT Mean” value (FER^WT; log[inhibitor] (M) -8.52288)?
A: 59.2785%

Q: What about the “Residual activity (%) WT Mean” value (FER^WT; log[inhibitor] (M) -9) of the same compound?
A: 83.3824%

Q: And the “Residual activity (%) WT Mean” value (FER^WT; log[inhibitor] (M) -9.52288)?
A: 101.278%

Q: What about the “Residual activity (%) WT Mean” value (FER^WT; log[inhibitor] (M) -10) of the same compound?
A: 106.348%

Q: What about the “Residual activity (%) WT Mean” value (FER^WT; log[inhibitor] (M) -10.5229) of the same compound?
A: 105.352%

Q: What about the “Residual activity (%) WT Mean” value (FER^WT; log[inhibitor] (M) -11) of the same compound?
A: 108.85%

Q: Which IC50 (FER^WT) does the source give for `CCC(=O)Nc1ccccc1Nc1nc(Nc2ccccc2OC)ncc1Cl` [Compound 5] here?
A: 126 nM

Q: And the IC50 (FES^WT)?
A: > 10000 nM

Q: Which results are given for `C=C1[C@@H](C)[C@H]2[C@H](Cc3ccccc3)NC(=O)[C@]23[C@H](OC(C)=O)/C=C/[C@@](C)(O)C(=O)[C@@H](C)C/C=C/[C@H]3[C@@H]1O` [Cytochalasin D]?
A: Phagocytic index ([1]; Figure 7i, replicates): 55.7493 and 57.2763 and 70.3881 and 51.4867 and 48.2922; Phagocytic index ([1]; MOI 0, Sup. Fig. 15d): 8.168 and 11.9502 and 9.328; Phagocytic index ([1]; MOI 5, Sup. Fig. 15d): 77.8958 and 83.9457 and 75.261; Phagocytic index ([1]; MOI 10, Sup. Fig. 15d): 109.345 and 104.624 and 85.7245; Phagocytic index ([1]; MOI 30, Sup. Fig. 15d): 212.699 and 198.296 and 185.432; Phagocytic index ([1]; MOI 50, Sup. Fig. 15d): 255.429 and 327.443 and 225.712; GFP-positive cells (%) ([1]; infection time 0 min): 14.1178% and 22.6106% and 27.9257%; Mean GFP intensity (RFU) ([1]; infection time 0 min): 245.785 RFU and 271.934 RFU and 267.216 RFU; GFP-positive cells (%) ([1]; infection time 15 min): 27.3639% and 36.225% and 38.7869%; Mean GFP intensity (RFU) ([1]; infection time 15 min): 283.565 RFU and 293.305 RFU and 282.675 RFU; Phagocytic index ([1]; infection time 15 min, Sup. Fig. 15c): 77.5947 and 106.25 and 109.641; GFP-positive cells (%) ([1]; infection time 30 min): 33.857% and 41.6734% and 39.0238%; Mean GFP intensity (RFU) ([1]; infection time 30 min): 270.952 RFU and 276.074 RFU and 268.61 RFU; Phagocytic index ([1]; infection time 30 min, Sup. Fig. 15c): 91.7362 and 115.049 and 104.822; GFP-positive cells (%) ([1]; infection time 60 min): 50.1058% and 58.9504% and 42.1365%; Mean GFP intensity (RFU) ([1]; infection time 60 min): 234.066 RFU and 238.429 RFU and 237.207 RFU; Phagocytic index ([1]; infection time 60 min, Sup. Fig. 15c): 117.281 and 140.555 and 99.951

Q: For `COc1cc(Nc2ncc(F)c(Nc3ccc4c(n3)NC(=O)C(C)(C)O4)n2)cc(OC)c1OC` [Compound R406, R406], which Phagocytic index ([1]; Figure 7i, replicates) is on record?
A: 212.415 and 224.559 and 218.427 and 271.225 and 264.489

Q: And the Phagocytosis ([1]; R406 1 µM)?
A: reduced phagocytosis to similar levels as observed for WEL028
